4 compounds from ChEMBL document CHEMBL3580535, “The biological characteristics of a novel camptothecin-artesunate conjugate” (Bioorg Med Chem Lett, 2015) can be followed below.

The test system of data set [1] is Mus musculus. Nature of the data set: Toxicity in BALB/c nude mouse assessed as animal death at 0.023 mmol/kg, ip administered every 2 days for 3 times measured on day 6. The format is organism-based. The settings on record: in vivo, 48 h.
For data set [2], the system named is Mus musculus. Nature of the data set: Toxicity in mouse assessed as animal death at 0.43 to 1.72 mmol, ip. Format: organism-based. The settings on record: in vivo.
The target in data set [3] is T1, Albumin (Bos taurus, UniProt P02769). The data set can be described thus: Binding affinity to bovine serum albumin assessed as Stem-Volmer quenching constant at 298K by fluorescence spectroscopy. Format: ADME. The settings on record: cattle, isolated protein.
Data set [4] deals with MCF7. Nature of the data set: Antitumor activity against human MCF7 cells xenografted in BALB/c nude mouse assessed as decrease in tumor volume at 0.023 mmol/kg, ip administered every 2 days for 3 times measured after day 6. Format: functional. (In general: A xenograft is tissue or cells of one species grown in another, often human tumour cells in immunodeficient mice.)
In data set [5] the target is Serotransferrin (Homo sapiens) (UniProt P02787). Nature of the data set: Effect on transferrin (unknown origin) conformation at 4 to 20 uM by synchronous fluorescence spectroscopy.
For data set [6], the system named is Mus musculus. Nature of the data set: Toxicity in mouse assessed as body weight loss at 1.72 mmol, ip. The format is organism-based. To be noted: in vivo.
The test system of data set [7] is SMMC-7721. Nature of the data set: Cytotoxicity against human SMMC7721 cells assessed as inhibition of cell viability after 48 hrs by MTT assay. The format is functional, cell-based.
The test system of data set [8] is MCF7. Nature of the data set: Cytotoxicity against human MCF7 cells assessed as inhibition of cell viability after 48 hrs by MTT assay. Format: functional, cell-based. In general terms: Formazan colour is commonly taken as a measure of viable cells.
Data set [9] concerns the target Serotransferrin (Homo sapiens) (UniProt P02787). The data set can be described thus: Binding affinity to transferrin (unknown origin) assessed as Stem-Volmer quenching constant at 310K by fluorescence spectroscopy.
Data set [10] has the same target. Nature of the data set: Binding affinity to transferrin (unknown origin) assessed as Stem-Volmer quenching constant at 298K by fluorescence spectroscopy.
Data set [11] addresses T1, Albumin. The data set can be described thus: Binding affinity to bovine serum albumin assessed as Stem-Volmer quenching constant at 310K by fluorescence spectroscopy. To be noted: cattle, isolated protein. The format is ADME.
Data set [12] can be described thus: Half life in PBS solution at pH 7.4. Format: ADME.
A short description of data set [13]: Half life in mouse plasma. The format is ADME, cell-free.
Data set [14] deals with T1, Albumin. Nature of the data set: Binding affinity to bovine serum albumin assessed as quenching constant at 310K by fluorescence spectroscopy. Format: ADME. To be noted: cattle, isolated protein.
Data set [15] deals with Mus musculus. Nature of the data set: Toxicity in BALB/c nude mouse assessed as body weight at 0.023 mmol/kg, ip administered every 2 days for 3 times measured on day 6 (reference value: 17.5 to 17.9 gms). The format is organism-based. To be noted: in vivo.
Data set [16] deals with T1, Albumin. The data set can be described thus: Binding affinity to bovine serum albumin assessed as quenching constant at 298K by fluorescence spectroscopy. Format: ADME. The settings on record: cattle, isolated protein.
Data set [17] relates to Mus musculus. The data set can be described thus: Toxicity in mouse assessed as body weight loss at 0.43 mmol, ip. The format is organism-based. To be noted: in vivo.
The test system of data set [18] is Mus musculus. Nature of the data set: Toxicity in mouse assessed as animal death at 0.43 mmol, ip. Format: organism-based. To be noted: in vivo.

Calls of active or inactive are those of the source. The rule behind the calls is not given here.

Sequence of Serotransferrin (Homo sapiens) (P02787 whole entry): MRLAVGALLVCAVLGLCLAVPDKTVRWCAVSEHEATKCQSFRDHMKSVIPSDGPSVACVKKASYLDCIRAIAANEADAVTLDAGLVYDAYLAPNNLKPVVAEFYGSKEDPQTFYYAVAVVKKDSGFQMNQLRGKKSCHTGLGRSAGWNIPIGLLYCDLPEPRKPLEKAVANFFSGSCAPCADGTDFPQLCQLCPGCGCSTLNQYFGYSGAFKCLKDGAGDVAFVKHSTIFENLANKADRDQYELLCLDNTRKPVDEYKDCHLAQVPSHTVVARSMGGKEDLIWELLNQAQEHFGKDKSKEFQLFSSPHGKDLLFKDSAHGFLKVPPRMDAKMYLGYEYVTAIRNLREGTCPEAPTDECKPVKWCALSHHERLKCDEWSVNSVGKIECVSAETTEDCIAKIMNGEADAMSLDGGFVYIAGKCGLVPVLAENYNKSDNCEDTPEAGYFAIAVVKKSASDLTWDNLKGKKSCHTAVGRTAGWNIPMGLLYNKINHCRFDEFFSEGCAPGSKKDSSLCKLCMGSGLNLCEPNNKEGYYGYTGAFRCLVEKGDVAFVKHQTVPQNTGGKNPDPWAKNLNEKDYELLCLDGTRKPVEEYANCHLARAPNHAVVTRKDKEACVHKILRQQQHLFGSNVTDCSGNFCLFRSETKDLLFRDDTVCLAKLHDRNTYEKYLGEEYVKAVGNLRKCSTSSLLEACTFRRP
T1 sequence (P02769 whole entry): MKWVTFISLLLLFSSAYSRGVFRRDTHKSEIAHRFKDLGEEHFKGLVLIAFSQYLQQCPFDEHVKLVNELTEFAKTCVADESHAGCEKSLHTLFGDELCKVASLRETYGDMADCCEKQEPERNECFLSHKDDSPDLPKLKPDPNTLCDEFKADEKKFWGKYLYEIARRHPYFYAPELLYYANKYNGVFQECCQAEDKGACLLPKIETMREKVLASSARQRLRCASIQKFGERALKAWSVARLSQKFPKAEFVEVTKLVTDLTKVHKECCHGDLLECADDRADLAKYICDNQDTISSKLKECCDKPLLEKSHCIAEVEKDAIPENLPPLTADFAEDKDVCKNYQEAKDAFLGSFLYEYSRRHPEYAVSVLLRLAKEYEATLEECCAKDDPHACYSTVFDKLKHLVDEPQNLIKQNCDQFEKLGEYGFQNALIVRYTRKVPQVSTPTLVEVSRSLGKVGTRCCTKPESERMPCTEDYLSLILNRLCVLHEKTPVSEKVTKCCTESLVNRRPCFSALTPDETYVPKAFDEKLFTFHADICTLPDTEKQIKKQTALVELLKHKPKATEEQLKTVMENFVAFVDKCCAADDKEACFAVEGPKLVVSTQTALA

Broadly, the inhibition in vivo is the share of the control response that was lost under treatment. As usually defined, the half-life is the time in which the quantity being followed falls by half. With `CC[C@@]1(OC(=O)CCC(=O)O[C@@H]2O[C@@H]3O[C@@]4(C)CC[C@H]5[C@H](C)CC[C@@H]([C@H]2C)[C@@]35OO4)C(=O)OCc2c1cc1n(c2=O)Cc2cc3c(CN(C)C)c(O)ccc3nc2-1`, the Activity result in [1] is on record as “Non-toxic”; in data set [2], “Non-toxic”; in data set [6], “Toxic”; in [15], 15.5 g. In addition, the KSV in data set [3] came to 2.27 ×10⁴ L/mol; in data set [9], 2.22 ×10⁴ L/mol; in [10] it was 2.36 ×10⁴ L/mol; in data set [11], 1.03 ×10⁴ L/mol. For the same compound, the inhibition in vivo at 23 µmol/kg in data set [4] was 50.2%. The result in [5] was inactive. Further, the inhibition entry in [7] and in data set [8] was “Dose-dependent effect” in each case. For the same compound, the half-life in data set [12] was 15 h; in [13], 4 h. Besides, the Kq in data set [14] is on record as 1.03 ×10¹² L/mol/s; in data set [16], 2.27 ×10¹² L/mol/s.
`CC[C@@]1(O)C(=O)OCc2c1cc1n(c2=O)Cc2cc3c(CN(C)C)c(O)ccc3nc2-1` [TOPOTECAN]: the results for the Activity entry in [1] and in [15] were “Toxic” and 13.6 g, respectively. In [4], the inhibition in vivo at 23 µmol/kg came out at 70.2%.
With `C[C@H]1[C@H](OC(=O)CCC(=O)O)O[C@@H]2O[C@@]3(C)CC[C@H]4[C@H](C)CC[C@@H]1[C@@]24OO3` [ARTESUNATE], the Activity result in [1] is listed as “Non-toxic”; in [15] it was 16.1 g; in data set [17] it was “Toxic”. For the same compound, the inhibition result in data set [7] and in data set [8] was “Active” throughout.
Consider `CC[C@@]1(O)C(=O)OCc2c1cc1n(c2=O)Cc2cc3ccccc3nc2-1` [CAMPTOTHECIN], for which the Activity entry in [1] was “Toxic”; in [18], “Toxic”; in data set [15], 11.3 g; in data set [17], “Toxic”. Also, the KSV turned out to be 3.626 ×10⁴ L/mol in [3], 2.62 ×10⁴ L/mol in [9], 4.35 ×10⁴ L/mol in data set [10] and 3.345 ×10⁴ L/mol in data set [11]. Further, the inhibition in vivo at 23 µmol/kg in data set [4] came to 45.3%. For the same compound, the outcome in data set [5] was inactive. For the same compound, the inhibition entry in [7] and in data set [8] was “Active” in each case. Also, the Kq in [14] is 3.345 ×10¹² L/mol/s; in data set [16] it was 3.626 ×10¹² L/mol/s.
